Structures are written as SMILES. Active and inactive are the calls of the source.

For orientation: EC50 means the concentration at which the effect is half-maximal. As a reminder, the IC50 is the concentration needed to halve the response being measured. For orientation: AC50 means the midpoint of the concentration-response curve, whichever way the signal moves.

Assay [1] is described as follows: NIH-3T3 fibroblast cytotoxicity, dose response, cytotoxicity control, cell-based, fluorescence, Alamar Blue, secondary assay (AID 2327).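 Also: NIH-3T3 mouse fibroblasts cultured with fluconazole at 8 µg/mL.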 It is filed as functional. (In general: Alamar Blue is a resazurin reagent that responds to reducing activity.)
Assay [2] is described as follows: C. albicans growth with fluconazole, confirmation, fluorescence, retest (AID 2467). It is filed as functional, cell-based.
Assay [3] addresses Beta-lactamase (Pseudomonas aeruginosa, UniProt Q79MP6).
The target of assay [4] is Serine/threonine-protein phosphatase (Candida dubliniensis (strain CD36 / CBS 7987 / NCPF 3949 / NRRLY-17841) (Yeast), UniProt B9W6M3). Description: calcineurin pathway inhibitors in yeast reporter, dose response, S. cerevisiae, CDRE-lacZ, luminescence, secondary (AID 2388).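 Also: yeast reporter cells carrying a calcineurin-responsive lacZ construct stimulated with calcium chloride; luminescent beta-galactosidase reporter signal in whole cells rather than isolated phosphatase activity; potency for inhibition where a drop in reporter signal means calcineurin blockade.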 It is filed as functional, cell-based.
Sequence of Serine/threonine-protein phosphatase (B9W6M3 whole entry): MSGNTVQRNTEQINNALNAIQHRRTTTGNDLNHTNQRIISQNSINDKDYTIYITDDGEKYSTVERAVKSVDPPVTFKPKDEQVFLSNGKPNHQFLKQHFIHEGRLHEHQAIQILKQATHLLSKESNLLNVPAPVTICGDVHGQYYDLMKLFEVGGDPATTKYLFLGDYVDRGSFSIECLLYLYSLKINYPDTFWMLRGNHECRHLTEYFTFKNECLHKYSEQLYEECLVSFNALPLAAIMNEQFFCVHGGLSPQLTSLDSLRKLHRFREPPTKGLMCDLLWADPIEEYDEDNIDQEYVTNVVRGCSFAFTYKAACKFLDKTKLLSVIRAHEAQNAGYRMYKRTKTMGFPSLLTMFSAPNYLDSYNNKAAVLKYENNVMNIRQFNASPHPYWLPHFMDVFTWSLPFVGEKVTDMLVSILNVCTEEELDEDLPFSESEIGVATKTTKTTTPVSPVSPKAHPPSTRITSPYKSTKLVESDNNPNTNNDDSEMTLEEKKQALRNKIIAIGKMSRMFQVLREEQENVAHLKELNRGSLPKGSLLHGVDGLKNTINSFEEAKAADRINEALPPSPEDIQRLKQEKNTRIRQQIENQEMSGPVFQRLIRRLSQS
In assay [5] the target is Beta-lactamase (Salmonella choleraesuis (strain SC-B67), UniProt Q5J463).
Sequence of Beta-lactamase (Salmonella choleraesuis (strain SC-B67), UniProt Q5J463) (Q5J463 whole entry): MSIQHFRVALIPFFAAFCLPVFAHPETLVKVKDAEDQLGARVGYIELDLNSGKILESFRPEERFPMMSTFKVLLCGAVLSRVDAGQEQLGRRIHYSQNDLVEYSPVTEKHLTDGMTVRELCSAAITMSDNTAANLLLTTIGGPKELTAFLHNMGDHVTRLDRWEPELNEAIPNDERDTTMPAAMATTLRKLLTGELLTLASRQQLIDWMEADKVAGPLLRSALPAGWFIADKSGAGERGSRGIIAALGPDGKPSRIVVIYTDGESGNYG
The target of assay [6] is T1, Microphthalmia-associated transcription factor (Homo sapiens, UniProt O75030).
T1 sequence (O75030 whole entry): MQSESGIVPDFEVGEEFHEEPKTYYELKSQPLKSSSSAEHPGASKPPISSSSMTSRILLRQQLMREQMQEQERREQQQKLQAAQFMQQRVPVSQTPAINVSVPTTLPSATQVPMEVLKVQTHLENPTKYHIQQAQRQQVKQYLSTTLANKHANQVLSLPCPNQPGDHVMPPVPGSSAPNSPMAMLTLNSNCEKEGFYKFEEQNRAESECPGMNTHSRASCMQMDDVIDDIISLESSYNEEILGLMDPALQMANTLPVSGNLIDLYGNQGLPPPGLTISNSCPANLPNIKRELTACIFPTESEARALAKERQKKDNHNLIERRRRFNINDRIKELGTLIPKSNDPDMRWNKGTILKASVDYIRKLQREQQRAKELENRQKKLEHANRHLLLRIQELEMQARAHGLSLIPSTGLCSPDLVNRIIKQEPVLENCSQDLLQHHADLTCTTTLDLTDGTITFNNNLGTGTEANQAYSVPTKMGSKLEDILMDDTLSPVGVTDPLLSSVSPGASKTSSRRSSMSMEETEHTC
Description: TRPM1 promoter luciferase signal decrease, dose response, MITF inhibitor project, cell-based, SK-MEL-5, cherry-picked, set 3 (AID 493073).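 Also: SK-MEL-5 melanoma cells with luciferase driven by the MITF target TRPM1 promoter.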 It is filed as functional.

Assay [7] addresses ATP-dependent molecular chaperone HSP82 (Candida albicans (strain WO-1) (Yeast), UniProt C4YTQ8). Description: loss of DOC-induced GRE-beta-galactosidase reporter signal, dose response, Hsp90 inhibitor project, S. cerevisiae, luminescence (AID 2400).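 Also: beta-galactosidase luminescence from glucocorticoid response element reporter as proxy for Hsp90 function; inhibitor potency where signal loss means Hsp90 inhibition.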 It is filed as functional, cell-based.
A further assay concerns Escherichia coli. The assay is described as follows: microbe, parasite or virus in culture.
Assay [8] can be described thus: inhibitors of intracellular T. cruzi replication, confirmation, NIH3T3 host cells, beta-gal luminescence (AID 2044).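 Also: intracellular parasites grown in NIH/3T3 mouse fibroblasts as host cells; luminescent beta-galactosidase reporter signal from transgenic T. cruzi replicating inside host cells; inhibitors lower the luminescence signal.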 It is filed as functional, cell-based.
A short description of assay [9]: cytotoxicity toward NIH3T3 fibroblasts, dose response, counter-screen, cell-based, ATP luminescence, mouse fibroblasts (AID 2010).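 Also: cells exposed to compound for about 90 hours before reading.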 It is filed as functional. For orientation: Counterscreens check selectivity or assay interference.
For assay [10], the target named is T2, DNA repair and recombination protein RAD54-like (Homo sapiens, UniProt Q92698).
T2 sequence (Q92698 whole entry): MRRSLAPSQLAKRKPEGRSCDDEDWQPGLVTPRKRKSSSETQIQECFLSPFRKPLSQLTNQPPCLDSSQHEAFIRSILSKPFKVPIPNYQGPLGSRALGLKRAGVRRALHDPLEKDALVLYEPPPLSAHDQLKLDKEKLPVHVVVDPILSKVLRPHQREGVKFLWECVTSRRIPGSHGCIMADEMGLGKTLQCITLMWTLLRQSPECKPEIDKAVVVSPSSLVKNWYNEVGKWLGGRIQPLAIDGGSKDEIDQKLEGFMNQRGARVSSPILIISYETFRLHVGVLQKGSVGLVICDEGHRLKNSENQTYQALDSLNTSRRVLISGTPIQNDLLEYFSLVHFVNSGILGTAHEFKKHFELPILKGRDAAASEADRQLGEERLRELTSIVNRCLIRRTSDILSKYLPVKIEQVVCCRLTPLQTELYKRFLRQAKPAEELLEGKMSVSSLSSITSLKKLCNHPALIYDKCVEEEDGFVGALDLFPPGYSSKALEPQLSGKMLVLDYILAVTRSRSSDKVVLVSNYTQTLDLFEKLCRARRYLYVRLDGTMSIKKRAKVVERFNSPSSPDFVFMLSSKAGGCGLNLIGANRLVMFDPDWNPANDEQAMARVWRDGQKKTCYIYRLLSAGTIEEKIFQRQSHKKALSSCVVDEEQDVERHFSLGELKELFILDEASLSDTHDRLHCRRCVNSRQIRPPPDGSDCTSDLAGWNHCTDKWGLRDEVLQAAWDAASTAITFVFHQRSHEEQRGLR
Description: inhibitors of human RAD54 branch migration, confirmation, biochemical, fluorescence, cherry-picked samples, dose series (AID 651657). It is filed as functional.

For assay [11], the target named is T3, DNA repair protein RAD52 homolog (Homo sapiens, UniProt P43351).
T3 sequence (P43351 whole entry): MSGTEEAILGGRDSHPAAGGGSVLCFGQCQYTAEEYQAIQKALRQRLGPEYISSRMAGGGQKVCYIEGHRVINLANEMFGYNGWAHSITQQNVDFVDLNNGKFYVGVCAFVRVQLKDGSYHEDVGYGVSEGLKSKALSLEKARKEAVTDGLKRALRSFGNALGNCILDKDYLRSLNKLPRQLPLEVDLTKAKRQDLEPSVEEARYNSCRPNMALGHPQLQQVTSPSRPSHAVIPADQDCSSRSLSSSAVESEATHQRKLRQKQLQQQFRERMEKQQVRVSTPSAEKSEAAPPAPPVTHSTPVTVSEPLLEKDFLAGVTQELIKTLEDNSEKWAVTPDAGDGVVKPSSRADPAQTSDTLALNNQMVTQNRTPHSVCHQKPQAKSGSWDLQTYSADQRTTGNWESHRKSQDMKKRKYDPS
It is filed as functional, biochemical.

The subject of assay [12] is A-375. The assay is described as follows: MITF: Counter assay: A375 proliferation Measured in Cell-Based System Using Plate Reader - 2084-03_Inhibitor_Dose_DryPowder_Activity. [Related pubchem assays (depositor defined):AID488944]. It is filed as functional. The following applies: Homo sapiens.
Assay [13] can be described thus: A549 cell cytotoxicity, dose response, cytotoxicity control, plate reader, cherry-pick, antagonist series (AID 743412). It is filed as functional, cell-based.
Assay [14] is described as follows: LGR2 antagonists, dose response, cell-based, HEK293, CRE-luciferase reporter, cherry pick, set 2 (AID 743343).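 Also: transfected cells were stimulated with diluted bursicon conditioned medium after compound addition.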 It is filed as functional.
Assay [15] in a line: MC4R antagonists, dose response, counter-screen for LGR2 antagonist project, cell-based, plate reader, cherry pick (AID 743444).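 Also: transfected HEK 293 cells stimulated with alpha-MSH peptide; potency of inhibitors of the alpha-MSH evoked signal.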 It is filed as functional.
Assay [16] in a line: HEK293 cell cytotoxicity, dose response, cytotoxicity control, plate reader, cherry-picked samples (AID 743446). It is filed as functional, cell-based.
In assay [17] the test system is A-375. Description: A375 melanoma cell viability reduction, dose response, counter-screen for MITF modulator project, cherry-pick samples, set 2 (AID 540335). It is filed as functional, cell-based. To be noted: Homo sapiens.
In the next assay the test system is Jurkat. The assay is described as follows: antigen receptor-induced NF-kB inhibitors, dose response, Jurkat, luciferase reporter, luminescence, B- and T-cell (AID 489004).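 Also: NF-kB luciferase reporter Jurkat cells stimulated with PMA plus ionomycin.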 It is filed as functional, cell-based. To be noted: Homo sapiens. For orientation: In a reporter assay the amount or activity of a reporter protein is the signal.
The nature of assay [18]: cytotoxicity in HEK-293T NF-kB-Luc cells, dose response, cytotoxicity control for B/T-cell NF-kB inhibitor project, cell-based, uHTS hits (AID 489019).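 Also: IC50 reflects cytotoxicity as loss of cell viability.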 It is filed as functional.
Assay [19] has as its target T4, COUP transcription factor 2 (Homo sapiens, UniProt P24468).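 Also: HEK293 cells transiently cotransfected with COUP-TFII expression vector and reporter; luciferase reporter luminescence driven by COUP-TFII from the pX2-168 reporter plasmid.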
T4 sequence (P24468 whole entry): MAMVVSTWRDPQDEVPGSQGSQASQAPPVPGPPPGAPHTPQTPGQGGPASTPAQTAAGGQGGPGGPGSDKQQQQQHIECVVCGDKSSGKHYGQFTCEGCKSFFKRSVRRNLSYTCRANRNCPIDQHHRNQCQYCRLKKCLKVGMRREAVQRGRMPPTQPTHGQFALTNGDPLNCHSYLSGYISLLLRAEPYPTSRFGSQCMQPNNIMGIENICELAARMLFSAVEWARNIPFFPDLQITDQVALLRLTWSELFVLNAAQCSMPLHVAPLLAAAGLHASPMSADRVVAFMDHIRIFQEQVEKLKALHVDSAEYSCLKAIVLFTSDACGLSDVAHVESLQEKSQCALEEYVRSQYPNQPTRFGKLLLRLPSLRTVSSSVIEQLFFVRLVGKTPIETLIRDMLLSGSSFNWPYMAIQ
The assay is described as follows: Luminescence-based cell-based high throughput dose response assay to identify inhibitors of COUP-TFII (NR2F2). It is filed as functional.

The next assay deals with Beta-galactosidase (Escherichia coli, UniProt Q8VNN2). Description: PubChem AID 485352. It is filed as functional.
Sequence of Beta-galactosidase (Q8VNN2 whole entry): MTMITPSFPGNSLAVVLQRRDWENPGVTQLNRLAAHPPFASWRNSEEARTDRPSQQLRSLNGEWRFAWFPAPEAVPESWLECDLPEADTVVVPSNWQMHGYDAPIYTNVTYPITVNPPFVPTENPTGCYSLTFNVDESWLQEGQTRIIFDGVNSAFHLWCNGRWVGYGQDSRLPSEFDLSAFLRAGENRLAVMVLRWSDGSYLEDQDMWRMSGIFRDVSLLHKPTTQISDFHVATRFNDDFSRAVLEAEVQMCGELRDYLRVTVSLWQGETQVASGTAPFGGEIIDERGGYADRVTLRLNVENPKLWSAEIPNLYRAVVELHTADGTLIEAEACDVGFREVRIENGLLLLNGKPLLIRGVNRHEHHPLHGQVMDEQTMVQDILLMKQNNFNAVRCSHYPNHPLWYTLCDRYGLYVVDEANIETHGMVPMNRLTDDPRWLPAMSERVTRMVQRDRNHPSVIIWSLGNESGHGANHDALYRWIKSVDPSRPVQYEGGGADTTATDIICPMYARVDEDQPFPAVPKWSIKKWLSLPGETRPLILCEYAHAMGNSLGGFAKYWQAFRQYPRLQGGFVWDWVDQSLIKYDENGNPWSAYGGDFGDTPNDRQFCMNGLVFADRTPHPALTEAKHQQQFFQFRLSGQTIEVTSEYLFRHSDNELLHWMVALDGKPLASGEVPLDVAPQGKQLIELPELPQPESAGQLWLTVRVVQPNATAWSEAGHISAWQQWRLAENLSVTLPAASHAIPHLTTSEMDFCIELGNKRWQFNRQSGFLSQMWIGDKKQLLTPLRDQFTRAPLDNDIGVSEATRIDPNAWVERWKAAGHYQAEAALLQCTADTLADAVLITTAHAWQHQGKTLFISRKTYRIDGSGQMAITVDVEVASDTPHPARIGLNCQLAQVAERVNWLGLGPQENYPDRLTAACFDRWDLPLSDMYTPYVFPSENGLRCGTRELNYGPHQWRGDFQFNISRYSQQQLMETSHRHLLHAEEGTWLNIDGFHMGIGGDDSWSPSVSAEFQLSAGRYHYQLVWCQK
Assay [20] addresses Type-1 angiotensin II receptor (Homo sapiens, UniProt P30556). Description: AT1 receptor antagonists, dose response, selectivity assay for APJ receptor antagonist project, cell-based, uHTS hits (AID 463214).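 Also: antagonist potency against angiotensin II stimulated AT1 response.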 It is filed as functional.

Sequence of ATP-dependent molecular chaperone HSP82 (C4YTQ8 whole entry): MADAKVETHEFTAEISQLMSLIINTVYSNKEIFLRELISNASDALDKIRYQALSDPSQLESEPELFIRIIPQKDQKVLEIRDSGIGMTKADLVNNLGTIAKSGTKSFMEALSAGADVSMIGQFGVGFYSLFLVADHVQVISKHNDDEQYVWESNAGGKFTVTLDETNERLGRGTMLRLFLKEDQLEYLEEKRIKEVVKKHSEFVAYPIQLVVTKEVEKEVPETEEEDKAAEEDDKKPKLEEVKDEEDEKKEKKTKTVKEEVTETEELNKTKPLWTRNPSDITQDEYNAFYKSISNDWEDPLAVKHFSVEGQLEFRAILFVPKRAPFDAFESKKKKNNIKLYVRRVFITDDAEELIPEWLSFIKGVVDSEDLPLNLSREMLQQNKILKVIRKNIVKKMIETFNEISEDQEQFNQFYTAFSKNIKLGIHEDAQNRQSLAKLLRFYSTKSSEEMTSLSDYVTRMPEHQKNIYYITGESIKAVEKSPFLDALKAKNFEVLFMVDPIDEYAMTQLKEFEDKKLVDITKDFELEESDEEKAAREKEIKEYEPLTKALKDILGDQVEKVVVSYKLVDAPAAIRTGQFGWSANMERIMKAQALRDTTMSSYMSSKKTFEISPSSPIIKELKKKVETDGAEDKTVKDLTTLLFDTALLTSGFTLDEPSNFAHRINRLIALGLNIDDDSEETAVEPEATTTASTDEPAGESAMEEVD
Sequence of Beta-lactamase (Pseudomonas aeruginosa, UniProt Q79MP6) (Q79MP6 whole entry): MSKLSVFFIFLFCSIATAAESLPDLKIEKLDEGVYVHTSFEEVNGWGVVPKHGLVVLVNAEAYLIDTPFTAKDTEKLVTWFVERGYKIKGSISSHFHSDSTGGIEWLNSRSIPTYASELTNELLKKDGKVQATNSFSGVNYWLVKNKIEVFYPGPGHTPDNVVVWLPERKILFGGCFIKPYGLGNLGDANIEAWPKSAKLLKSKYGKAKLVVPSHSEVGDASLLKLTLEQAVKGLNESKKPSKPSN
Sequence of Type-1 angiotensin II receptor (P30556 whole entry): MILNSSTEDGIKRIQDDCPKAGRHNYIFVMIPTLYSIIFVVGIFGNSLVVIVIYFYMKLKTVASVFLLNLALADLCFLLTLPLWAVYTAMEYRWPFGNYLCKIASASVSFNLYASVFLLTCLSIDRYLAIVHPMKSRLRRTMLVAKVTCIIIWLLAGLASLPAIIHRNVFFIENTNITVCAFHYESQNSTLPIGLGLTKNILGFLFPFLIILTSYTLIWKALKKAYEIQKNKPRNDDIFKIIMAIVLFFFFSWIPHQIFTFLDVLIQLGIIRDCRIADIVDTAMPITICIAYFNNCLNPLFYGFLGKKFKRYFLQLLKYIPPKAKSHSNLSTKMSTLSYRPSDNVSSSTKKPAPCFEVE

For the molecule `CC(C)n1cc(/C=C/c2cc[n+](C)cc2)c2ccccc21`, the EC50 in assay [1] was 130 µM (inconclusive); in assay [2] it was 0.634 µM (active); in assay [4], > 180 µM (inactive); in assay [7] it was > 150 µM (inactive). Moreover, the IC50 at Beta-lactamase [3] is 41.8 µM (inactive); on Beta-lactamase [5], 40.1 µM (inactive). The half-maximal activity concentration (AC50) in [6] is 8.14 µM (active).
Turning to `COc1ccc(OC)c(-n2c(SCC(=O)N3CCc4ccccc43)nc3c(c2=O)SCC3)c1`, the AC50 with Escherichia coli is 71.1 µM (active).
`CCCCN(CC)CCN=C(S)Nc1ccc2nc(N3CCN(C)CC3)cc(C)c2c1`: the EC50 in assay [8] was 0.34 µM (active); in assay [9], 4.9 µM (active). Also, the AC50 is 22.5 µM (active) in assay [10], 5.01 µM (active) in assay [11] and 56 µM (active) in the assay on Escherichia coli.
For `CCCNC(=O)COC(=O)c1ccccc1C(=O)c1ccc(Cl)c([N+](=O)[O-])c1`, the AC50 was 8.34 µM (active) in [6]; 34.3 µM (active) in the assay with A-375 [12]; 7.32 µM (active) in [13]; 8.85 µM (active) in assay [14]; 10.6 µM (active) in [15]; 10.7 µM (active) in assay [16].
In the case of `O=C(COc1ccc(Cl)cc1Cl)Nc1ccccn1`, the AC50 in [6] was 2.19 µM (active); in the assay with A-375 [17], 18.4 µM (active).
On to `CC[n+]1c(C=C2C=C(C)OC(C)=C2)sc2ccccc21`, for which the EC50 in [1] is 126 µM (active); in assay [2], 0.239 µM (active); in [8], < 0.1 µM (active); in assay [4], 29.6 µM (active); in assay [9], > 60 µM (not active); in [7], 55.9 µM (active). Moreover, the EC50 in the assay “cells” was 0.006 µM (active). The IC50 in the assay on Jurkat is 3.99 µM (active); in assay [18], > 80 µM (inactive); in assay [19], 4.51 µM (active). In [11], the AC50 is 8.17 µM (active).
Turning to `CN(C)CC(=O)c1ccc(-c2ccccc2)cc1`, the EC50 on Beta-galactosidase is > 40 µM (inactive). For the same molecule, in assay [20], the IC50 is listed as > 40 µM (not active).

These data come from ChEMBL document CHEMBL1201862, “PubChem BioAssay data set” (2004).
